The assay deals with HCV NS3-NS4A protease (tNS3 with KK4A) (Hepatitis C virus genotype 1a, UniProt P27958). The experiment in a line: HCV Ki Assay (HPLC microbore separation of 5AB substrate and products). It is filed as biochemical. Particulars: 25 nM tNS3, 25 μM KK4A, 25 μM 5AB substrate, 20 min at 30 C. On the procedure: HPLC Microbore Method for Separation of 5AB Substrate and Products
NH2-Glu-Asp-Val-Val-(alpha)Abu-Cys-Ser-Met-Ser-Tyr-COOH
A stock solution of 20 mM 5AB (or concentration of your choice) was made in DMSO w/0.2M DTT. This was stored in aliquots at −20 C.
Buffer: 50 mM HEPES, pH 7.8; 20% glycerol; 100 mM NaCl
Total assay volume was 100 μL
The buffer, KK4A, DTT, and tNS3 were combined; distributed 78 μL each into wells of 96 well plate. This was incubated at 30 C for ˜5-10 min.
2.5 μL of appropriate concentration of test compound was dissolved in DMSO (DMSO only for control) and added to each well. This was incubated at room temperature for 15 min.
Initiated reaction by addition of 20 μL of 250 μM 5AB substrate (25 μM concentration is equivalent or slightly lower than the Km for 5AB).
Incubated for 20 min at 30 C.
Terminated reaction by addition of 25 μL of 10% TFA
Transferred 120 μL aliquots to HPLC vials
Separated SMSY product from substrate and KK4A by the following method:
Microbore Separation Method:
Stop time: 17 min Post-run time: 10 min.

Structures are written as SMILES.

HCV NS3-NS4A protease (tNS3 with KK4A), sequence (P27958 1027-1208): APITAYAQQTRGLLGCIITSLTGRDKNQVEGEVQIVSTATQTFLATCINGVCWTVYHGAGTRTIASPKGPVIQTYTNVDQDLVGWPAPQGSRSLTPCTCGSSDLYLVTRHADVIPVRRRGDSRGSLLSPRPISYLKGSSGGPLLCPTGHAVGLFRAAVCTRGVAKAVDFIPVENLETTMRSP
HCV NS3-NS4A protease (tNS3 with KK4A), sequence (P27958 1658-1711): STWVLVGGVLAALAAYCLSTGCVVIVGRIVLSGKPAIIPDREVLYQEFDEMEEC

As for `C=CCONC(=O)C(=O)[C@H](CCC)NC(=O)[C@@H]1C[C@@H]2CCCC[C@@H]2N1C(=O)[C@@H](NC(=O)[C@@H](NC(=O)c1cnccn1)C1CCCCC1)C(C)(C)C` [Compound 4, 1-(2-{2-Cyclohexyl-2-[(pyrazine-2-carbonyl)-amino]-acetylamino}-3,3-dimethyl-butyryl)-octahydro-indole-2-carboxylic acid (1-allyloxyaminooxalyl-butyl)-amide], the Ki was above 3 µM.

As to `CCC[C@H](NC(=O)[C@@H]1C[C@@H]2CCCC[C@@H]2N1C(=O)[C@@H](NC(=O)[C@@H](NC(=O)c1cnccn1)C1CCCCC1)C(C)(C)C)C(=O)C(=O)NOC(C)(C)C` [Compound 2, 1-(2-{2-Cyclohexyl-2-[(pyrazine-2-carbonyl)-amino]-acetylamino}-3,3-dimethyl-butyryl)-octahydro-indole-2-carboxylic acid (1-tert-butoxyaminooxalyl-butyl)-amide], the Ki was below 1.5 µM.

Turning to `CCC[C@H](NC(=O)[C@@H]1C[C@@H]2CCCC[C@@H]2N1C(=O)[C@@H](NC(=O)[C@@H](NC(=O)c1cnccn1)C1CCCCC1)C(C)(C)C)C(=O)C(=O)NOCc1ccccc1` [Compound 3, 1-(2-{2-Cyclohexyl-2-[(pyrazine-2-carbonyl)-amino]-acetylamino}-3,3-dimethyl-butyryl)-octahydro-indole-2-carboxylic acid (1-benzyloxyaminooxalyl-butyl)-amide], the Ki was 1.5 to 3 µM.

`CCC[C@H](NC(=O)[C@@H]1C[C@@H]2CCCC[C@@H]2N1C(=O)[C@@H](NC(=O)[C@@H](NC(=O)c1cnccn1)C1CCCCC1)C(C)(C)C)C(=O)C(=O)NN(C)c1ccccc1` [Compound 6, 1-(2-{2-Cyclohexyl-2-[(pyrazine-2-carbonyl)-amino]-acetylamino}-3,3-dimethyl-butyryl)-octahydro-indole-2-carboxylic acid [1-(N′-methyl-N′-phenyl-hydrazinooxalyl)-butyl]-amide] registered a Ki below 1.5 µM.

In turn, `CCC[C@H](NC(=O)[C@@H]1C[C@@H]2CCCC[C@@H]2N1C(=O)[C@@H](NC(=O)[C@@H](NC(=O)c1cnccn1)C1CCCCC1)C(C)(C)C)C(=O)C(=O)NOCC(C)C` [Compound 1, 1-(2-{2-Cyclohexyl-2-[(pyrazine-2-carbonyl)-amino]-acetylamino}-3,3-dimethyl-butyryl)-octahydro-indole-2-carboxylic acid (1-isobutoxyaminooxalyl-butyl)-amide] registered a Ki below 1.5 µM.

Regarding `CCC[C@H](NC(=O)[C@@H]1C[C@@H]2CCCC[C@@H]2N1C(=O)[C@@H](NC(=O)[C@@H](NC(=O)c1cnccn1)C1CCCCC1)C(C)(C)C)C(=O)C(=O)NN(Cc1ccccc1)Cc1ccccc1` [Compound 8], the Ki is above 3 µM.

As for `CCC[C@H](NC(=O)[C@@H]1C[C@@H]2CCCC[C@@H]2N1C(=O)[C@@H](NC(=O)[C@@H](NC(=O)c1cnccn1)C1CCCCC1)C(C)(C)C)C(=O)C(=O)NN1CCOCC1` [Compound 7], the Ki was above 3 µM.

Regarding `CCC[C@H](NC(=O)[C@@H]1C[C@@H]2CCCC[C@@H]2N1C(=O)[C@@H](NC(=O)[C@@H](NC(=O)c1cnccn1)C1CCCCC1)C(C)(C)C)C(=O)C(=O)NOc1ccccc1` [Compound 5, 1-(2-{2-Cyclohexyl-2-[(pyrazine-2-carbonyl)-amino]-acetylamino}-3,3-dimethyl-butyryl)-octahydro-indole-2-carboxylic acid (1-phenoxyaminooxalyl-butyl)-amide], the Ki lay within 1.5 to 3 µM.
